This passage reports logP results from the OPERA property sets (Mansouri et al. 2018).

As a reminder, the logP is the decadic logarithm of the partition coefficient of the neutral form, usually between octanol and water. Lower therefore signals lower lipophilicity.

Consider `COc1ccc(S(=O)(=O)c2ccc(N)cc2)c(OC)c1`, for which the logP worked out at 1.64.

Regarding `N#Cc1ccc(S(=O)(=O)c2ccc(N)cc2)cc1`, the logP is 1.63. The logP values of the last two compounds are within 0.2 log units of each other.

As for `Nc1ccc(S(=O)(=O)c2ccc(O)cc2O)cc1`, the log partition coefficient (logP) stood at 1.29.

Compound `COc1cc(OC)c(S(=O)(=O)c2ccc(N)cc2)c(OC)c1` showed a lipophilicity (logP) of 1.03.

Compound `COC(=O)c1ccc(S(=O)(=O)c2ccc(N)cc2)cc1` had a lipophilicity (logP) of 2.13.

The compound `Cc1ccc(S(=O)(=O)c2ccc(N)cc2)cc1` came in with a log partition coefficient (logP) of 2.4.

Compound `Nc1ccc(S(=O)(=O)c2cccc(N)c2)cc1` yielded a logP of 1.03.

`NC(=O)c1ccc(S(=O)(=O)c2ccc(N)cc2)cc1` displayed a lipophilicity (logP) of 0.9.

In the case of `CCN(CC)C(=O)c1ccc(S(=O)(=O)c2ccc(N)cc2)cc1`, the logP came to 1.44.

`CCN(CC)c1ccc(S(=O)(=O)c2ccc(N)cc2)cc1` yielded a log partition coefficient (logP) of 3.

For `Nc1ccc(S(=O)(=O)c2ccccc2N)cc1`, the log partition coefficient (logP) was 1.56.

In turn, `CC(=O)c1ccc(S(=O)(=O)c2ccc(N)cc2)cc1` displayed a lipophilicity (logP) of 1.67.

For the compound `Nc1ccc(S(=O)(=O)c2ccc(NO)cc2)cc1`, the log partition coefficient (logP) turned out to be 0.88.

Take `CCNc1ccc(S(=O)(=O)c2ccc(N)cc2)cc1`: the log partition coefficient (logP) amounted to 1.98.

The compound `COc1ccc(S(=O)(=O)c2ccc(N)cc2)cc1` came in with a logP of 1.96.

`Nc1ccc(S(=O)(=O)c2ccc(Cl)cc2)cc1`: the lipophilicity (logP) came out at 2.57.

`CN(C)c1ccc(S(=O)(=O)c2ccc(N)cc2)cc1` gave a log partition coefficient (logP) of 1.99.

In turn, `Nc1ccc(S(=O)(=O)c2ccc([N+](=O)[O-])cc2)cc1` displayed a lipophilicity (logP) of 2.04.

On to `Nc1ccc(S(=O)(=O)c2ccc([N+](=O)[O-])cc2[N+](=O)[O-])cc1`, for which the log partition coefficient (logP) was found to be 1.84.

Take `Nc1ccc(S(=O)(=O)c2ccc(Cl)cc2Cl)cc1`: the logP stood at 3.12.

On to `Nc1ccc(S(=O)(=O)c2ccc(N)cc2N)cc1`, for which the logP amounted to 0.38.

As for `Nc1ccc(S(=O)(=O)c2ccc(O)cc2)cc1`, the logP is 1.57.

The compound `Cc1ccc(S(=O)(=O)c2ccc(N)cc2)c(C)c1` showed a logP of 2.71.

In the case of `Nc1ccc(S(=O)(=O)c2ccc(Br)cc2)cc1`, the log partition coefficient (logP) amounted to 2.85.

Consider `Nc1ccc(S(=O)(=O)c2ccccc2)cc1`, for which the logP came out at 1.76.

As to `Cc1cc(C)c(S(=O)(=O)c2ccc(N)cc2)c(C)c1`, the lipophilicity (logP) came to 3.06.
